In test [1] the target is T1, USP28 (Homo sapiens, UniProt Q96RU2).
T1 construct: purchased R&D Systems China Co., Ltd. (R&D Systems)
T1 sequence (Q96RU2 1-1077): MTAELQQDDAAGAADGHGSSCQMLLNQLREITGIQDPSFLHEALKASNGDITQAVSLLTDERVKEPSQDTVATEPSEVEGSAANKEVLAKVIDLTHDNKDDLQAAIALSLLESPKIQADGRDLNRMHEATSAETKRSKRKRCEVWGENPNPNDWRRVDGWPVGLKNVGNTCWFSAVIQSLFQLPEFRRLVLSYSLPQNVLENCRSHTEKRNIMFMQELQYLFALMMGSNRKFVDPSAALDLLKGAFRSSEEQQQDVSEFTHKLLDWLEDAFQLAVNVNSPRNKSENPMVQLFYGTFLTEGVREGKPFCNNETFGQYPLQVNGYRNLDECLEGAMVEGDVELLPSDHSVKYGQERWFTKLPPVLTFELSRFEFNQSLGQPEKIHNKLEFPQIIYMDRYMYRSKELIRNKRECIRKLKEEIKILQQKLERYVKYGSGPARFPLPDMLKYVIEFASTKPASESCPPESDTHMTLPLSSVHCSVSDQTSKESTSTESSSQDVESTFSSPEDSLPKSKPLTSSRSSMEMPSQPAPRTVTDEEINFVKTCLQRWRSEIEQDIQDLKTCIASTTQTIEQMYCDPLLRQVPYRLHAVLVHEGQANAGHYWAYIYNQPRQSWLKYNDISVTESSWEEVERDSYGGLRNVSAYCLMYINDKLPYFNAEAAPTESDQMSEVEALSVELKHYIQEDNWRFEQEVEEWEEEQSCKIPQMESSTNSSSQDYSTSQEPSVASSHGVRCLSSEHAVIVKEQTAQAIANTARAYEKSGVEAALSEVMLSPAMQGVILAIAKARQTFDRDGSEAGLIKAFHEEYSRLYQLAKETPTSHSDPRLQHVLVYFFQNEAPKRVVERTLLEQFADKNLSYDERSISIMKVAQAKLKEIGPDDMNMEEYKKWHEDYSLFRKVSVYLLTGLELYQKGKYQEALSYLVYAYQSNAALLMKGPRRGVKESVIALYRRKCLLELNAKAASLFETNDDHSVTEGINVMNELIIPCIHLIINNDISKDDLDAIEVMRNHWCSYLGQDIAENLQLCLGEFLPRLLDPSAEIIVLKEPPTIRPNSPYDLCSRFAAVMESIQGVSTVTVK
As to the kind of experiment: USP28 activity by the ubiquitin-rhodamine 110 (Ub-Rh110) method. In kind it is biochemical. The note with it: purified USP28 4 nM, Ub-Rh110 125 nM, 30 min preincubation; read-out: Inhibitory activity (IC50) USP28. How it is done: USP28 activity was determined by the ubiquitin-rhodamine 110 (Ub-Rh110) method.
Purified USP28 and a substrate Ub-Rh110 used for determining deubiquitinase activity were purchased from R&D Systems China Co., Ltd. (R&D Systems). First, test compounds were each dissolved in DMSO to prepare a 10 mM stock solution, and then the stock solution was diluted to the desired concentration (with a DMSO content of 0.5%) with a buffer solution [containing 20 mM Tris-HCl (pH 8.0), 2 mM CaCl2), 3 mM BME, 0.01% Prionex, and 0.01% Triton X-100]. The prepared test compound solutions at different concentrations were mixed uniformly with USP28 (final concentration: 4 nM) in a 96-well plate, and the mixture was incubated at r. t. for 30 min before the addition of Ub-Rh110 to 125 nM. The final volume of the whole reaction system was 20 μL. The released fluorescence (excitation wavelength: 485 nm, emission wavelength: 535 nm) was detected immediately on a microplate reader after the addition of the substrate. A blank control group (DMSO instead of test compound) and a substrate group (no USP28 added) were set simultaneously. The inhibitory rates of the test compounds for USP28 were calculated according to the following formula:
Inhibition %=(1−[(fluorescence valuetest compound−fluorescence valuesubstrate)/(fluorescence valuecontrol−fluorescence valuesubstrate])×100%
According to the inhibitory rates of the test compounds for USP28 under different concentrations, IC50 values were calculated.
(§1) With reference to Example 2 and Example 3, USP28 and USP25 inhibitor activity tests were performed on representative example compounds of the present disclosure and the following comparative compound structures.

The target in test [2] is T2, USP25 (Homo sapiens, UniProt Q9UHP3).
T2 construct: purchased R&D Systems
T2 sequence (Q9UHP3 1-1055): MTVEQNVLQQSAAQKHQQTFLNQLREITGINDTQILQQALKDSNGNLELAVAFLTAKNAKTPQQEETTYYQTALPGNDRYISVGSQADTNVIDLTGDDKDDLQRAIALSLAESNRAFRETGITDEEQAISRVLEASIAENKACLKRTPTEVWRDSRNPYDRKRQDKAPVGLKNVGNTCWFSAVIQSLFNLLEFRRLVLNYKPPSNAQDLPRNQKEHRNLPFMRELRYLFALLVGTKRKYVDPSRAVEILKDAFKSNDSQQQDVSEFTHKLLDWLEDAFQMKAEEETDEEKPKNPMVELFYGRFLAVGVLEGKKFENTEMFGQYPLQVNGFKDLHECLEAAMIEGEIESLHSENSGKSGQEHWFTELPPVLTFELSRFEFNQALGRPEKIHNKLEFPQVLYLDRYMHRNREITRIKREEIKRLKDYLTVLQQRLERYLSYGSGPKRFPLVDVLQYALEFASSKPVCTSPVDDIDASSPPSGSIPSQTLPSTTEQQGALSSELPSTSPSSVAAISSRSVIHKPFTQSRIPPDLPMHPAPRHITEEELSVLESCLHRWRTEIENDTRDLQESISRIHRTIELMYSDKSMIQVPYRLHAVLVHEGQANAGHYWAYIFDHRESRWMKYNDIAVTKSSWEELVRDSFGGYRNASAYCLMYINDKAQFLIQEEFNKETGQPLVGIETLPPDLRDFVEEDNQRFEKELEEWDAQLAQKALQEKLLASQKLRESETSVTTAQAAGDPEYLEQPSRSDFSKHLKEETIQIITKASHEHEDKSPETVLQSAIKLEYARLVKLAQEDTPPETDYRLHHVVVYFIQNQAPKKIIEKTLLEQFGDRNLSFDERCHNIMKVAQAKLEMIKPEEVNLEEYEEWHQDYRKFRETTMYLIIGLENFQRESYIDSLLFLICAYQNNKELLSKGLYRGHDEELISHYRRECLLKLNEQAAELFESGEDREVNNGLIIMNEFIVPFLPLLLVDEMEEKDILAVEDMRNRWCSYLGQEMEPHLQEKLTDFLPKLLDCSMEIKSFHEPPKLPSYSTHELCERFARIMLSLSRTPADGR
As to the kind of experiment: USP25 activity by the Ub-Rh110 method. It is filed as biochemical. The note with it: purified USP25 15 nM, Ub-Rh110 125 nM; read-out: Inhibitory activity (IC50) USP25. As for the experimental part:
USP25 activity was determined by the Ub-Rh110 method.
Purified USP25 was purchased from R&D Systems. The experimental procedures were the same as those in Example 2. The final concentration of USP25 was 15 nM, the final concentration of the substrate Ub-Rh110 was 125 nM, and the final volume of the whole reaction system was 20 μL.
as §1

Usually IC50 stands for the concentration that inhibits the measured activity by half. As to `CNc1c(C(=O)NCCc2ccc(N3CC4CCC(C3)N4)cc2)cnc2c1ccn2C` [Compound I-12], the IC50 in test [1] is below 50 nM; in test [2] it was 50 to 500 nM.
`CCn1ccc2c(Cl)c(C(=O)NCCc3ccc(N4CC5CCC(C4)N5)cc3)cnc21` [Compound I-01, N-4-(3,8-diazabicyclo[3.2.1]octan-3-yl)phenethyl-4-chloro-1-ethyl-1H-pyrrolo[2,3-b]pyridine-5-carboxamide]: the IC50 in test [1] and in test [2] was 1000 to 10000 nM each time.
On to `CCn1ccc2c(NC)c(C(=O)N[C@@H]3CCc4cc(N5CC6CCC(C5)N6)ccc4C3)cnc21` [Compound I-26], for which the 50% inhibitory concentration (IC50) was in the range of 50 to 500 nM in test [1] and 500 to 1000 nM in test [2].
As to `CCn1ccc2c(NC)c(C(=O)NCCc3ccc(C4CC5CCC(C4)N5)cc3)cnc21` (centres unmarked) [Compound I-17], the 50% inhibitory concentration (IC50) in test [1] was below 50 nM; in test [2] it was 50 to 500 nM.
For `CCn1ccc2c(NC)c(C(=O)NC[C@H](C)c3ccc(N4CC5CCC(C4)N5)cc3)cnc21` [Compound I-21], in that order: 50 to 500 nM and 500 to 1000 nM.
For `CCn1ccc2c(NC)c(C(=O)N[C@H]3CCc4cc(N5CC6CCC(C5)N6)ccc4C3)cnc21` [Compound I-25], in that order: below 50 nM and 50 to 500 nM.
For the compound `CCn1ccc2c(NC)c(C(=O)NCCc3ccc(N4CC5CCC(C4)N5)cc3F)cnc21` [Compound I-05], the IC50 in test [1] is below 50 nM; in test [2], 50 to 500 nM.
Turning to `CCCCn1ccc2c(NC)c(C(=O)NCCc3ccc(N4CC5CCC(C4)N5)cc3)cnc21` [Compound I-14], the IC50 in test [1] and in test [2] was below 50 nM in each case.
Consider `CCn1ccc2c(NC)c(C(=O)NCCc3ccc(N4CC5CCC(C4)N5)cc3F)nnc21` [Compound I-29], for which the values for the IC50 in test [1] and in test [2] were below 50 nM and 50 to 500 nM, respectively.
For `CCNc1c(C(=O)NCCc2ccc(N3CC4CCC(C3)N4)cc2)cnc2c1ccn2CC` [Compound I-03], in that order: 500 to 1000 nM and 500 to 1000 nM.
For `CCn1ccc2c(NC)c(C(=O)NCCc3ccc(N4CCNCC4)cc3)nnc21` [Compound I-28], in that order: below 50 nM and below 50 nM.
For `CCn1ccc2c(NC)c(C(=O)N[C@H]3COc4cc(N5CC6CCC(C5)N6)ccc4C3)cnc21` [Compound I-23], in that order: below 50 nM and below 50 nM.
`CCn1ccc2c(OC)c(C(=O)NCCc3ccc(N4CCNCC4)cc3)cnc21` [Compound I-33]: the IC50 in test [1] was 50 to 500 nM; in test [2], 1000 to 10000 nM.
For `CCn1ccc2c(NC)c(C(=O)NCCc3ccc(N4C5CCC4CNC5)cc3)cnc21` [Compound I-19], in that order: below 50 nM and 50 to 500 nM.
Consider `CCn1ccc2c(NC)c(C(=O)NCCc3ccc(Br)cc3)cnc21` [Compound I-10], for which the IC50 in test [2] was above 10000 nM.
In the case of `CNc1c(C(=O)NCCc2ccc(N3CC4CCC(C3)N4)cc2)cnc2c1ccn2CC(F)(F)F` [Compound I-15], the IC50 in test [1] and in test [2] was below 50 nM throughout.
Take `CCn1ccc2c(NC)c(C(=O)NCCc3ccc(N4CC5CCC(C4)N5)cc3)cnc21` [Compound I-02, N-4-(3,8-diazabicyclo[3.2.1]octan-3-yl)phenethyl-1-ethyl-4-methylamino-1H-pyrrolo[2,3-b]pyridine-5-carboxamide]: the IC50 in test [1] and in test [2] was below 50 nM throughout.
Take `COc1c(C(=O)NCCc2ccc(N3CC4CCC(C3)N4)cc2)cnc2c1ccn2C` [Compound I-31]: the IC50 was 1000 to 10000 nM in test [1] and above 10000 nM in test [2].
Take `CCn1ccc2c(NC)c(C(=O)NCCc3ccc(C4C5CCC4CNC5)cc3)cnc21` (centres unmarked) [Compound I-18]: the IC50 in test [2] was 50 to 500 nM.
Consider `CNc1c(C(=O)NCCc2ccc(N3CCNCC3)cc2)cnc2c1ccn2CC(F)(F)F` [Compound I-16], for which the IC50 in test [1] and in test [2] was below 50 nM in each case.
As to `CCn1cc(Cl)c2c(NC)c(C(=O)NCCc3ccc(N4CC5CCC(C4)N5)cc3)cnc21` [Compound I-30], the concentration for half-maximal inhibition (IC50) in test [1] is below 50 nM; in test [2], 50 to 500 nM.
For `CCn1ccc2c(NC)c(C(=O)NCCc3c[nH]c4ccccc34)cnc21` [Compound I-08], in that order: below 50 nM and 50 to 500 nM.
For `CCn1ccc2c(NC)c(C(=O)NCCc3ccc(N4CCNCC4)cc3)cnc21` [Compound I-07], in that order: below 50 nM and below 50 nM.
Turning to `CNc1c(C(=O)NCCc2ccc(N3CC4CCC(C3)N4)cc2)cnc2[nH]ccc12` [Compound I-11], the IC50 was in the range of 50 to 500 nM in test [1] and 500 to 1000 nM in test [2].
For `CCn1ccc2c(OC)c(C(=O)NCCc3ccc(N4CC5CCC(C4)N5)cc3)cnc21` [Compound I-32], in that order: 50 to 500 nM and 1000 to 10000 nM.
For `CCn1ccc2c(NC)c(C(=O)NCC(C)(C)c3ccc(N4CC5CCC(C4)N5)cc3F)cnc21` [Compound I-06], in that order: 50 to 500 nM and 500 to 1000 nM.
Turning to `CCCn1ccc2c(NC)c(C(=O)NCCc3ccc(N4CC5CCC(C4)N5)cc3)cnc21` [Compound I-13], the IC50 in test [1] and in test [2] was below 50 nM throughout.
Consider `CCn1ccc2c(NC)c(C(=O)NCCc3ccc(OC)c(OC)c3)cnc21` [Compound I-09], for which the 50% inhibitory concentration (IC50) in test [1] and in test [2] was 50 to 500 nM each time.
Take `CCn1ccc2c(NC)c(C(=O)NCCc3ccc(C4CCNCC4)cc3)cnc21` [Compound I-20]: the figures for the IC50 in test [1] and in test [2] were below 50 nM and 50 to 500 nM, respectively.
